The source of these data is patent US10030047B2 (Hoffmann-La Roche Inc., priority 2015, dated 2018).

This test concerns A. baumannii strain ATCC17978. Briefly: 50% growth inhibitory concentration (IC50) determination, Iso-Sensitest broth. In kind it is cell-based. Conditions: Acinetobacter baumannii; A. baumannii ATCC17978; Iso-Sensitest medium; OD 600 nm over 16 h; read-out: IC50 ATCC17978. As to the method:
The in vitro antimicrobial activity of the compounds was alternatively determined according to the following procedure:
The assay used a 10-points Iso-Sensitest broth medium to measure quantitatively the in vitro activity of the compounds against A. baumannii ATCC 17978.
Stock compounds in DMSO were serially twofold diluted (e.g. range from 50 to 0.097 μM final concentration) in 384 wells microtiter plates and inoculated with 49 μl the bacterial suspension in Iso-Sensitest medium to have a final cell concentration of ˜5×10^(5) CFU/ml in a final volume/well of 50 ul/well. Microtiter plates were incubated at 35±2° C.
Bacterial cell growth was determined with the measurement of optical density at λ=600 nm each 20 minutes over a time course of 16 h.
Growth inhibition was calculated during the logarithmic growth of the bacterial cells with determination of the concentration inhibiting 50% (IC50) and 90% (IC90) of the growth.
Tables 3, 4 and 5 provide the 50% growth inhibitory concentrations (IC50) in micromoles per liter of the compounds of present invention obtained against the A. baumannii strain ATCC17978.
Regarding `CN1C(=O)[C@H](CCCCN)NC(=O)[C@H](CCCN)NCc2ccccc2Sc2c(Cl)cc(Br)cc2CNC(=O)[C@@H]1Cc1c[nH]c2ccccc12` [Example 151, (12S,15S,18S)-15-(4-Amino-butyl)-18-(3-amino-propyl)-6-bromo-4-chloro-12-(1H-indol-3-ylmethyl)-13-methyl-2-thia-10,13,16,19-tetraaza-tricyclo[19.4.0.0*3,8*]pentacosa-1(25),3,5,7,21,23-hexaene-11,14,17-trione], the IC50 amounted to 200 nM. As for `CN1C(=O)[C@H](CCCCN)NC(=O)[C@H](CCCN)NCc2ccccc2Sc2c(Cl)ncc(Cl)c2CNC(=O)[C@@H]1Cc1c[nH]c2ccccc12` [Example 152], the IC50 was below 390 nM.

As to `CN1C(=O)[C@H](CCCCN)NC(=O)[C@H](CCCN)NCc2ccccc2Sc2cnc(Cl)cc2CNC(=O)[C@@H]1Cc1c[nH]c2ccccc12` [Example 153], the IC50 was below 390 nM. For the molecule `CN1C(=O)[C@H](CCCCN)NC(=O)[C@H](CCC(N)=O)NCc2ccccc2Sc2c(cc(-c3ccccc3)cc2C(F)(F)F)CNC(=O)[C@@H]1Cc1c[nH]c2ccccc12` [Example 155, 3-[(11S,14S,17S)-14-(4-Amino-butyl)-17-(1H-indol-3-ylmethyl)-16-methyl-12,15,18-trioxo-23-phenyl-25-trifluoromethyl-2-thia-10,13,16,19-tetraaza-tricyclo[19.4.0.0*3,8*]pentacosa-1(25),3,5,7,21,23-hexaen-11-yl]-propionamide], the IC50 amounted to 2700 nM. In the case of `CN1C(=O)[C@H](CCCCN)NC(=O)[C@H](CCCN)NCc2ccccc2Sc2c(Cl)cncc2CNC(=O)[C@@H]1Cc1c[nH]c2ccccc12` [Example 158] it was below 390 nM; in that of `CN1C(=O)[C@H](CCCCN)NC(=O)[C@H](CCCN)NCc2cccnc2Sc2cnc(Cl)cc2CNC(=O)[C@@H]1Cc1c[nH]c2ccccc12` [Example 159, (7S,10S,13S)— 13-((1H-Indol-3-yl)methyl)-10-(4-aminobutyl)-7-(3-aminopropyl)-18-chloro-12-methyl-6,7,9,10,12,13,15,16-octahydrodipyrido[2,3-b:4′,3′-p][1,5,8,11,14]thiatetraazacycloheptadecine-8,11,14(5H)-trione], below 390 nM.

Regarding `CN1C(=O)[C@H](CCC(N)=O)NC(=O)[C@H](CCCN)NCc2ccccc2Sc2c(cc(-c3ccccc3)cc2C(F)(F)F)CNC(=O)[C@@H]1Cc1c[nH]c2ccccc12` [Example 161, 3-[(11S,14S,17S)-11-(3-Amino-propyl)-17-(1H-indol-3-ylmethyl)-16-methyl-12,15,18-trioxo-23-phenyl-25-trifluoromethyl-2-thia-10,13,16,19-tetraaza-tricyclo[19.4.0.0*3,8*]pentacosa-1(25),3,5,7,21,23-hexaen-14-yl]-propionamide], the IC50 turned out to be 6800 nM. For the molecule `CN1C(=O)[C@H](CCCCN)NC(=O)[C@H](CCCN)NCc2ccccc2Sc2c(ccc(Br)c2Cl)CNC(=O)[C@@H]1Cc1c[nH]c2ccccc12` [Example 168, (12S,15S,18S)-15-(4-Amino-butyl)-18-(3-amino-propyl)-5-bromo-4-chloro-12-(1H-indol-3-ylmethyl)-13-methyl-2-thia-10,13,16,19-tetraaza-tricyclo[19.4.0.0*3,8*]pentacosa-1(25),3,5,7,21,23-hexaene-11,14,17-trione], the half-maximal inhibitory concentration (IC50) is below 400 nM.

`CN1C(=O)[C@H](CCCCN)NC(=O)[C@H](CCCN)NCc2ccccc2Sc2c(ccc(-c3ccccc3)c2Cl)CNC(=O)[C@@H]1Cc1c[nH]c2ccccc12` [Example 176, (12S,15S,18S)-15-(4-Amino-butyl)-18-(3-amino-propyl)-4-chloro-12-(1H-indol-3-ylmethyl)-13-methyl-5-phenyl-2-thia-10,13,16,19-tetraaza-tricyclo[19.4.0.0*3,8*]pentacosa-1(25),3,5,7,21,23-hexaene-11,14,17-trione]: the IC50 worked out at 5100 nM. In the case of `CN1C(=O)[C@H](CCCCN)NC(=O)[C@H](CCCN)NCc2ccccc2Sc2c(-c3cccnc3)ncc(Cl)c2CNC(=O)[C@@H]1Cc1c[nH]c2ccccc12` [Example 194] it was 3300 nM; in that of `CN1C(=O)[C@H](CCCCN)NC(=O)[C@H](CCCN)NCc2ccccc2Sc2c(-c3ccncc3)ncc(Cl)c2CNC(=O)[C@@H]1Cc1c[nH]c2ccccc12` [Example 195], 3000 nM; in that of `COc1cc(-c2ncc(Cl)c3c2Sc2ccccc2CN[C@@H](CCCN)C(=O)N[C@@H](CCCCN)C(=O)N(C)[C@@H](Cc2c[nH]c4ccccc24)C(=O)NC3)ccn1` [Example 196], 100 nM. In the case of `CN1C(=O)[C@H](CCCCN)NC(=O)[C@H](CCCN)NCc2cccnc2Sc2ccc(Br)nc2CNC(=O)[C@@H]1Cc1c[nH]c2ccccc12` [Example 197, (7S,10S,13S)-13-((1H-Indol-3-yl)methyl)-10-(4-aminobutyl)-7-(3-aminopropyl)-18-bromo-12-methyl-6,7,9,10,12,13,15,16-octahydrodipyrido[2,3-b:2′,3′-p][1,5,8,11,14]thiatetraazacycloheptadecine-8,11,14(5H)-trione] it was 200 nM; in that of `CN1C(=O)[C@H](CCCCN)NC(=O)[C@H](CCCN)NCc2ccccc2Sc2c(-c3ccnc(C(F)(F)F)c3)ncc(Cl)c2CNC(=O)[C@@H]1Cc1c[nH]c2ccccc12` [Example 198], 300 nM; in that of `CN1C(=O)[C@H](CCCCN)NC(=O)[C@H](CCCN)NCc2ccccc2Sc2c(N3CCOCC3)ncc(Cl)c2CNC(=O)[C@@H]1Cc1c[nH]c2ccccc12` [Example 201], 400 nM. As for `CN1C(=O)[C@H](CCCCN)NC(=O)[C@H](CCCN)NCc2cc(Br)ccc2Sc2c(Cl)cccc2CNC(=O)[C@@H]1Cc1c[nH]c2ccccc12` [Example 206, (12S,15S,18S)-15-(4-Amino-butyl)-18-(3-amino-propyl)-23-bromo-4-chloro-12-(1H-indol-3-ylmethyl)-13-methyl-2-thia-10,13,16,19-tetraaza-tricyclo[19.4.0.0*3,8*]pentacosa-1(25),3,5,7,21,23-hexaene-11,14,17-trione], the concentration for half-maximal inhibition (IC50) was 1400 nM. Next, `CN1C(=O)[C@H](CCCCN)NC(=O)[C@H](CCCN)NCc2cc(-c3ccccc3)ccc2Sc2c(Cl)cccc2CNC(=O)[C@@H]1Cc1c[nH]c2ccccc12` [Example 207, (12S,15S,18S)-15-(4-Amino-butyl)-18-(3-amino-propyl)-4-chloro-12-(1H-indol-3-ylmethyl)-13-methyl-23-phenyl-2-thia-10,13,16,19-tetraaza-tricyclo[19.4.0.0*3,8*]pentacosa-1(25),3,5,7,21,23-hexaene-11,14,17-trione]: 9000 nM. Next, `CN1C(=O)[C@H](CCCCN)NC(=O)[C@H](CCCN)NCc2cc(-c3cccnc3)ccc2Sc2c(Cl)cccc2CNC(=O)[C@@H]1Cc1c[nH]c2ccccc12` [Example 208, (12S,15S,18S)-15-(4-Amino-butyl)-18-(3-amino-propyl)-4-chloro-12-(1H-indol-3-ylmethyl)-13-methyl-23-pyridin-3-yl-2-thia-10,13,16,19-tetraaza-tricyclo[19.4.0.0*3,8*]pentacosa-1(25),3,5,7,21,23-hexaene-11,14,17-trione]: 12500 nM; `Cc1cc(-c2ccc3c(n2)CNC(=O)[C@H](Cc2c[nH]c4ccccc24)N(C)C(=O)[C@H](CCCCN)NC(=O)[C@H](CCCN)NCc2cccnc2S3)ccn1` [Example 215, (7S,10S,13S)-13-((1H-Indol-3-yl)methyl)-10-(4-aminobutyl)-7-(3-aminopropyl)-12-methyl-18-(2-methylpyridin-4-yl)-6,7,9,10,12,13,15,16-octahydrodipyrido[2,3-b:2′,3′-p][1,5,8,11,14]thiatetraazacycloheptadecine-8,11,14(5H)-trione]: 2000 nM; `CN1C(=O)[C@H](CCCCN)NC(=O)[C@H](CCCN)NCc2cc(-c3ccc(CN)cc3)ccc2Sc2c(Cl)cccc2CNC(=O)[C@@H]1Cc1c[nH]c2ccccc12` [Example 216, (12S,15S,18S)-15-(4-Amino-butyl)-23-(4-aminomethyl-phenyl)-18-(3-amino-propyl)-4-chloro-12-(1H-indol-3-ylmethyl)-13-methyl-2-thia-10,13,16,19-tetraaza-tricyclo[19.4.0.0*3,8*]pentacosa-1(25),3,5,7,21,23-hexaene-11,14,17-trione]: 700 nM. `COc1cc(-c2ccc3c(n2)CNC(=O)[C@H](Cc2c[nH]c4ccccc24)N(C)C(=O)[C@H](CCCCN)NC(=O)[C@H](CCCN)NCc2cccnc2S3)ccn1` [Example 217, (7S,10S,13S)-13-((1H-Indol-3-yl)methyl)-10-(4-aminobutyl)-7-(3-aminopropyl)-18-(2-methoxypyridin-4-yl)-12-methyl-6,7,9,10,12,13,15,16-octahydrodipyrido[2,3-b:2′,3′-p][1,5,8,11,14]thiatetraazacycloheptadecine-8,11,14(5H)-trione]: the half-inhibitory concentration (IC50) came to 1000 nM.

Take `CN1C(=O)[C@H](CCCCN)NC(=O)[C@H](CCCN)NCc2cccnc2Sc2ccc(N3CCOCC3)nc2CNC(=O)[C@@H]1Cc1c[nH]c2ccccc12` [Example 218, (7S,10S,13S)-13-((1H-Indol-3-yl)methyl)-10-(4-aminobutyl)-7-(3-aminopropyl)-12-methyl-18-morpholino-6,7,9,10,12,13,15,16-octahydrodipyrido[2,3-b:2′,3′-p][1,5,8,11,14]thiatetraazacycloheptadecine-8,11,14(5H)-trione]: the IC50 stood at 2000 nM.
